One data set concerns HCT116 MTAP KO cells. In words: In vitro proliferation assay of HCT116 MTAP KO cells. The data set is classed as cell-based. The following applies: 10 days, 3D CellTiter-Glo. The protocol: (§1) McCoy's 5A medium, penicillin/streptomycin antibiotics, purchased from Wisent; fetal bovine serum, purchased from Biosera. 3D CellTiter-Glo (chemiluminescent cell viability assay reagent), purchased from Promega. HCT116 WT cell line, purchased from Nanjing Cobioer Biosciences Co., Ltd. HCT116 MTAP KO cell line, purchased from Horizon Discovery. Envision multilabel plate reader (PerkinElmer).
(§2) HCT116 WT and MTAP KO cells were seeded into an ultra-low attachment 96-well U-bottom plate at a density of 80 μL cell suspension per well containing 1000 HCT116 cells. The cell plate was incubated overnight in a CO2 incubator.
(§3) The test compound was serially diluted 5-fold across eight concentrations using a pipette, ranging from 2 mM to 25.6 nM, and tested in duplicate. 78 μL of medium per well was added to an intermediate plate. Subsequently, 2 μL of the serially diluted compound per well was transferred to the corresponding wells of the intermediate plate and mixed well. […] An additional cell plate was prepared to read the signal value on the day of compound addition, which served as the […] for data analysis.
(§4) The cell plate was added with 100 μL of chemiluminescent cell viability assay reagent per well and incubated at room temperature for 10 minutes to stabilize the luminescent signal. A multilabel microplate reader was used for reading. […]
On the technique in general: ATP-based viability assays read luminescence as a measure of living cells.

In another data set the test system is HCT116 WT cells. In words: In vitro proliferation assay of HCT116 WT cells. It counts as cell-based. The settings on record: 10 days, 3D CellTiter-Glo. How it is done: as §1, §2, §3, §4
Data set [1] in a line: In vitro liver microsomal stability test, human. The settings on record: Human liver microsomes, 1 μM compound, 0.5 mg/mL. It counts as in vitro ADME. The protocol: (§5) Liver microsomes: Human and animal microsomes were purchased from Corning or Xenotech and stored in a −80° C. freezer.
(§6) Reduced nicotinamide adenine dinucleotide phosphate (NADPH), supplier: Chem-Impex International, Cat. No.: 00616.
(§7) Stock solution: 10 mM DMSO solution
(§8) Preparation of working concentration: The stock solution was diluted to 100 µM using 100% acetonitrile (organic phase content: 99% acetonitrile, 1% DMSO).
(§9) Two 96-well incubation plates were prepared and named as T60 incubation plate and NCF60 incubation plate.
(§10) 445 μL of microsomal working solution (liver microsomal protein concentration of 0.56 mg/mL) was added to both the T60 incubation plate and the NCF60 incubation plate.
(§11) The two incubation plates were pre-incubated in a 37° C. water bath for approximately 10 minutes.
(§12) After pre-incubation, 5 μL of the test compound or control compound working solution was added to both the T60 incubation plate and the NCF60 incubation plate and mixed well. 50 μL of potassium phosphate buffer per well was added to the NCF60 incubation plate to initiate the reaction. 180 μL of termination solution (acetonitrile solution containing 200 ng/mL tolbutamide and 200 ng/mL labetalol) and 6 μL of NADPH regeneration system working solution were added to a TO termination plate. […]
Background: Microsomes from liver hold many membrane-bound enzymes, among them those of drug oxidation.

A short description of data set [2]: In vitro liver microsomal stability test, dog. It counts as in vitro ADME. The settings on record: Dog liver microsomes, 1 μM compound, 0.5 mg/mL. How it is done:
as §5, §6, §7, §8, §9, §10, §11, §12

A short description of data set [3]: In vitro liver microsomal stability test, rat. The data set is classed as in vitro ADME. The settings on record: Rat liver microsomes, 1 μM compound, 0.5 mg/mL. The protocol: as §5, §6, §7, §8, §9, §10, §11, §12
Data set [4] in a line: Pharmacokinetic testing in CD-1 mice. The data set is classed as in vivo. How it is done: Experimental purpose: To test the pharmacokinetic properties of the compound of the present disclosure in CD-1 mice.
Experimental materials: CD-1 mice (female, 15 to 30 g, 6 to 9 weeks, Beijing Vital River Laboratory Animal Technology Co., Ltd.)
The pharmacokinetic characteristics of the compound in rodents were tested following intravenous injection and oral administration according to a standard protocol. In the experiment, the candidate compound was prepared as a clear solution for single intravenous injection and as a homogeneous suspension for single oral administration in mice. In the case of intravenous injection, the dose was 3 mg/kg, with the vehicle being 5% DMSO/10% Solutol/85% water. In the case of oral administration, the dose was 30 mg/kg, with the vehicle being 0.5% MC (4000 cps)/0.2% Tween-80. Whole blood samples were collected within 24 hours, centrifuged at 3000 g for 15 minutes at 4° C., and the supernatant was separated to obtain plasma samples. 20 times the volume of acetonitrile solution containing internal standard was added to precipitate the protein. The samples were vortexed for 10 minutes and centrifuged at 3220 g for 15 minutes at 4° C. The supernatant was transferred to a 96-well plate and centrifuged at 3220 g for 5 minutes at 4° C. The supernatant was then injected for LC-MS/MS analysis to quantify plasma concentration, and pharmacokinetic parameters were calculated.

Data set [5] is described as follows: Pharmacokinetic testing in Beagles. The data set is classed as in vivo. How it is done: Experimental purpose: To test the pharmacokinetic properties of the compound of the present disclosure in Beagles.
Experimental materials: Beagles (male, >6 months old, Beijing Marshall Biotechnology Co., Ltd.)
The pharmacokinetic characteristics of the compound in dogs were tested following intravenous injection and oral administration according to a standard protocol. In the experiment, the test compound was prepared as a clear solution for single intravenous injection and single oral administration in dogs. In the case of intravenous injection, the dose was 2 mg/kg, with the vehicle being 5% DMSO/10% Solutol/85% water. In the case of oral administration, the dose was 10 mg/kg, with the vehicle being 5% DMSO/10% Solutol/85% water. Whole blood samples were collected within 48 hours, centrifuged at 3000 g for 15 minutes at 4° C., and the supernatant was separated to obtain plasma samples. 20 times the volume of acetonitrile solution containing internal standard was added to precipitate the protein. The samples were vortexed for 10 minutes and centrifuged at 3220 g for 15 minutes at 4° C. The supernatant was transferred to a 96-well plate and centrifuged at 3220 g for 5 minutes at 4° C. The supernatant was then injected for LC-MS/MS analysis to quantify plasma concentration, and pharmacokinetic parameters were calculated.

In data set [6] the test system is human large cell lung cancer LU99 subcutaneous xenograft tumor. In words: In vivo efficacy test, LU99 subcutaneous xenograft tumor model. On the set-up: species or system BALB/c nude mice. The settings on record: for TGI: based on tumor volume on day 29. The protocol:
To evaluate the tumor inhibitory effect of the compounds of the present disclosure on a human large cell lung cancer LU99 subcutaneous xenograft tumor model.
Female BALB/c nude mice were subcutaneously inoculated with the human large cell lung cancer LU99 cell line. After inoculation, the mice were randomly divided into groups based on body weight and tumor volume, with six animals per group, and were administered as described below.
Group 1 (vehicle group): When the tumor volume reached 207±9 mm^3 after inoculation, the mice were administered daily by gavage with the vehicle (5% DMSO/10% Solutol/85% double-distilled water) at a dose of 0.1 mL/10 g.
Group 2 (treatment group): When the tumor volume reached 207±10 mm^3 after inoculation, the mice were administered daily by gavage with the test compound (compound dissolved in 5% DMSO/10% Solutol/85% double-distilled water) at a dose of 12.5 mg/kg.
Group 3 (treatment group): When the tumor volume reached 207±10 mm^3 after inoculation, the mice were administered daily by gavage with the test compound (compound dissolved in 5% DMSO/10% Solutol/85% double-distilled water) at a dose of 25 mg/kg.
Group 4 (treatment group): When the tumor volume reached 207±14 mm^3 after inoculation, the mice were administered daily by gavage with the test compound (compound dissolved in 5% DMSO/10% Solutol/85% double-distilled water) at a dose of 50 mg/kg.
After the experimental grouping, the mice were weighed twice weekly, and the tumor diameters were measured using a vernier caliper. The tumor volume was calculated, and then the tumor growth inhibition (TGI) was calculated. On day 29 after experimental administration, the mice were euthanized and sampled. The calculation formulas are as follows:
Tumor volume=0.5×Length×Width^2
TGI (%)=[1−(Ti−T0)/(Ci−C0)]×100%, where Ti is the average tumor volume of a given administration group on a given day, T0 is the average tumor volume of the administration group at the start of administration, Ci is the average tumor volume of the control group on a given day (the same day as Ti), and C0 is the average tumor volume of the control group at the start of administration.

One may read the IC50 as the concentration at which inhibition is half-maximal. Read a low IC50 as higher potency. One may read the TGI as how far tumour growth fell short of that in controls. Lower therefore signals a weaker effect on the tumour.

With `Cn1ncc(-c2ccc3c(=O)[nH]nc(CN)c3c2)c1-c1c(F)c(Cl)cc(OC2(C)CC2)c1C#N` (single isomer, unassigned) [Compound 1A], the values for the IC50 with HCT116 MTAP KO cells and in the data set with HCT116 WT cells were 8 nM and greater than 10 µM, respectively.

In the case of `Cn1ncc(-c2ccc3c(=O)[nH]nc(CN)c3c2)c1-c1c(F)c(Cl)cc(OC2(C)CC2)c1C#N` (single isomer, unassigned) [Compound 3A], the IC50 with HCT116 MTAP KO cells was 7.43 nM; in the data set on HCT116 WT cells, 4.7 µM.

Regarding `[2H]C([2H])([2H])n1ncc(-c2ccc3c(=O)[nH]nc(CN)c3c2)c1-c1c(F)c(Cl)cc(OC2(C)CC2)c1C#N` [Compound 3A], the “Liver microsomal stability CLint” value in data set [1] worked out at 20.4 mL/min/kg; in data set [2] it was 47.7 mL/min/kg; in data set [3], 53.6 mL/min/kg. Also, in data set [4] (intravenous injection 3 mg/kg), the “Clearance Cl” value is 30.0 mL/min/kg. Moreover, the “Half-life T1/2” value in data set [4] (intravenous injection 3 mg/kg) came to 1.29 h; in data set [5] (intravenous injection 2 mg/kg), 5.90 h. For the same molecule, the “Bioavailability F” value turned out to be 46.8% in data set [4] (oral 30 mg/kg) and 113% in data set [5] (oral 10 mg/kg). In data set [4] (oral 30 mg/kg), the “Concentration integral AUC0-last” value was found to be 16.059 µM·h. In data set [5] (intravenous injection 2 mg/kg), this molecule returned a Clearance of 4.29 mL/min/kg. Further, in data set [5] (oral 10 mg/kg), the “Plasma concentration integral AUC0-last” value came to 91.502 µM·h. For the same molecule, the Tumor volume came to 207 mm^3 in data set [6] (12.5 mg/kg daily by gavage, Day 0); 253 mm^3 in data set [6] (12.5 mg/kg daily by gavage, Day 4); 297 mm^3 in data set [6] (12.5 mg/kg daily by gavage, Day 8); 331 mm^3 in data set [6] (12.5 mg/kg daily by gavage, Day 11); 382 mm^3 in data set [6] (12.5 mg/kg daily by gavage, Day 15); 440 mm^3 in data set [6] (12.5 mg/kg daily by gavage, Day 18). In addition, the Tumor volume in data set [6] (12.5 mg/kg daily by gavage, Day 22) was determined as 494 mm^3; in data set [6] (12.5 mg/kg daily by gavage, Day 25) it was 565 mm^3; in data set [6] (12.5 mg/kg daily by gavage, Day 29), 755 mm^3; in data set [6] (25 mg/kg daily by gavage, Day 0), 207 mm^3; in data set [6] (25 mg/kg daily by gavage, Day 4) it was 254 mm^3; in data set [6] (25 mg/kg daily by gavage, Day 8) it was 247 mm^3. In addition, the Tumor volume in data set [6] (25 mg/kg daily by gavage, Day 11) is recorded as 240 mm^3; in data set [6] (25 mg/kg daily by gavage, Day 15) it was 238 mm^3; in data set [6] (25 mg/kg daily by gavage, Day 18) it was 248 mm^3; in data set [6] (25 mg/kg daily by gavage, Day 22) it was 282 mm^3; in data set [6] (25 mg/kg daily by gavage, Day 25), 363 mm^3; in data set [6] (25 mg/kg daily by gavage, Day 29), 491 mm^3. The Tumor volume in data set [6] (50 mg/kg daily by gavage, Day 0) is reported as 207 mm^3; in data set [6] (50 mg/kg daily by gavage, Day 4), 239 mm^3; in data set [6] (50 mg/kg daily by gavage, Day 8) it was 238 mm^3; in data set [6] (50 mg/kg daily by gavage, Day 11), 209 mm^3; in data set [6] (50 mg/kg daily by gavage, Day 15), 206 mm^3; in data set [6] (50 mg/kg daily by gavage, Day 18) it was 193 mm^3. Further, the Tumor volume worked out at 226 mm^3 in data set [6] (50 mg/kg daily by gavage, Day 22); 273 mm^3 in data set [6] (50 mg/kg daily by gavage, Day 25); 412 mm^3 in data set [6] (50 mg/kg daily by gavage, Day 29). For the same molecule, the values for the tumour growth inhibition (TGI) in data set [6] (12.5 mg/kg daily by gavage), in data set [6] (25 mg/kg daily by gavage) and in data set [6] (50 mg/kg daily by gavage) were 66%, 83% and 87%, respectively.
